The structures appear in SMILES notation.

The target in this assay is BRAF^V600E protein (Homo sapiens, UniProt P15056, V600E). The assay is described as follows: HiBiT cellular BRAF V600E degradation assay. In kind it is cell-based. As to conditions: 24 h incubation; for DC50: A375.10 cells (HiBiT tag knocked in at N-terminal of BRAF V600E), concentration at which 50% of total cellular BRAF V600E is degraded; for Emax: A375.10 cells, Emax = amount of residual protein remaining in the cell after compound treatment, read-out: HiBit 24 h Emax.
Sequence of BRAF^V600E protein (P15056 whole entry V600E): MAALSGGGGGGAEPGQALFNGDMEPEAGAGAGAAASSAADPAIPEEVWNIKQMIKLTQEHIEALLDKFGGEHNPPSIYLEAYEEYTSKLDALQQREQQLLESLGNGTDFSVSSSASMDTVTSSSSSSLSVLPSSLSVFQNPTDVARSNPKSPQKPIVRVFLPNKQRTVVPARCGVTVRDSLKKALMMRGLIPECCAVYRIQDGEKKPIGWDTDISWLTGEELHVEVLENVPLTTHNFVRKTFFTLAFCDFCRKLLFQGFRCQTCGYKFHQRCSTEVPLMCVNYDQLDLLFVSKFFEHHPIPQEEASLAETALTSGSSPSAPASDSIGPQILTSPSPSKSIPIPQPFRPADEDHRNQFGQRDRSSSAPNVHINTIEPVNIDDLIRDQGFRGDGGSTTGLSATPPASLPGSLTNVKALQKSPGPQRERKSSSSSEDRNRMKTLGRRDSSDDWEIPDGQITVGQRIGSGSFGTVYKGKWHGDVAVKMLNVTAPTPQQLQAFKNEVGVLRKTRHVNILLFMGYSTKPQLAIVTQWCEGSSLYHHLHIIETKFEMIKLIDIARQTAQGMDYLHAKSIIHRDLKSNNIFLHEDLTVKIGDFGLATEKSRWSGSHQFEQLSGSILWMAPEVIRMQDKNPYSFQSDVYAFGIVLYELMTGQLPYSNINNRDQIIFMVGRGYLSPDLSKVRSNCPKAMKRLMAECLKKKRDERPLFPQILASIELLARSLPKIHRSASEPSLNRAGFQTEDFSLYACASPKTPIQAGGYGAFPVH

For orientation: DC50 means the midpoint of the concentration-degradation curve. A lower DC50 goes with degradation at low concentration. For orientation: Emax means the greatest response seen or fitted, relative to the assay's reference. Turning to `CCN(C)S(=O)(=O)Nc1ccc(F)c(C(=O)c2c[nH]c3ncc(-c4cnc(N5CCC(NC(=O)N6CCC(c7ccc(NC8CCC(=O)NC8=O)cn7)CC6)CC5)nc4)cc23)c1F` (stereo not shown) [Example A40, 4-[5-[(2,6-Dioxopiperidin-3-yl)amino]pyridin-2-yl]-N-[1-[5-[3-[3-[[ethyl(methyl)sulfamoyl]amino]-2,6-difluorobenzoyl]-1H-pyrrolo[2,3-b]pyridin-5-yl]pyrimidin-2-yl]piperidin-4-yl]piperidine-1-carboxamide;formic acid], the DC50 amounted to 8 nM and the Emax was 17%.

For `CCN(C)S(=O)(=O)Nc1ccc(F)c(C(=O)c2c[nH]c3ncc(C#CC4CCN(C(=O)CN5CCC(c6ccc(NC7CCC(=O)NC7=O)cc6)CC5)CC4)cc23)c1F` (stereo not shown) [Example A43, 5-[2-[1-[2-[4-[4-[(2,6-Dioxopiperidin-3-yl)amino]phenyl]piperidin-1-yl]acetyl]piperidin-4-yl]ethynyl]-3-[3-[[ethyl(methyl)sulfamoyl]amino]-2,6-difluorobenzoyl]-1H-pyrrolo[2,3-b]pyridine], the DC50 is 57 nM and the Emax was 32%.

As for `CCN(C)S(=O)(=O)Nc1ccc(F)c(C(=O)c2c[nH]c3ncc(-c4ccc(C5CCN(C(=O)CN6CCC(c7ccc(NC8CCC(=O)NC8=O)cc7)CC6)CC5)cc4)cc23)c1F` (stereo not shown) [Example A44, 5-[4-[1-[2-[4-[4-[(2,6-Dioxopiperidin-3-yl)amino]phenyl]piperidin-1-yl]acetyl]piperidin-4-yl]phenyl]-3-[3-[[ethyl(methyl)sulfamoyl]amino]-2,6-difluorobenzoyl]-1H-pyrrolo[2,3-b]pyridine], the DC50 stood at 10.4 nM and the Emax stood at 9.52%.

On to `CCN(C)S(=O)(=O)Nc1ccc(F)c(C(=O)c2c[nH]c3ncc(-c4ccc(N5CCN(C(=O)CN6CCC(c7ccc(OC8CCC(=O)NC8=O)cn7)CC6)CC5)nc4)cc23)c1F` (stereo not shown) [Example A45, 5-[6-[4-[2-[4-[5-(2,6-Dioxopiperidin-3-yl)oxypyridin-2-yl]piperidin-1-yl]acetyl]piperazin-1-yl]pyridin-3-yl]-3-[3-[[ethyl(methyl)sulfamoyl]amino]-2,6-difluorobenzoyl]-1H-pyrrolo[2,3-b]pyridine], for which half-maximal degradation (DC50) was put at 65 nM and the Emax is 21%.

As to `CCN(C)S(=O)(=O)Nc1ccc(F)c(C(=O)c2c[nH]c3ncc(-c4cnc(C5CCN(C(=O)CN6CCC(c7ccc(NC8CCC(=O)NC8=O)cc7)CC6)CC5)nc4)cc23)c1F` (stereo not shown) [Example A46, 5-[2-[1-[2-[4-[4-[(2,6-Dioxopiperidin-3-yl)amino]phenyl]piperidin-1-yl]acetyl]piperidin-4-yl]pyrimidin-5-yl]-3-[3-[[ethyl(methyl)sulfamoyl]amino]-2,6-difluorobenzoyl]-1H-pyrrolo[2,3-b]pyridine], it took 7.44 nM to reach half-maximal degradation (DC50) and the Emax worked out at 10.8%.

As for `CCN(C)S(=O)(=O)Nc1ccc(F)c(C(=O)c2c[nH]c3ncc(-c4ccc(N5CCN(C(=O)CN6CCC(c7ccc(NC89CC(C8)C(=O)NC9=O)cc7)CC6)CC5)nc4)cc23)c1F` [Example A47, 5-[6-[4-[2-[4-[4-[(2,4-Dioxo-3-azabicyclo[3.1.1]heptan-1-yl)amino]phenyl]piperidin-1-yl]acetyl]piperazin-1-yl]pyridin-3-yl]-3-[3-[[ethyl(methyl)sulfamoyl]amino]-2,6-difluorobenzoyl]-1H-pyrrolo[2,3-b]pyridine], it took 3.86 nM to reach half-maximal degradation (DC50) and the Emax was found to be 10.7%.

Consider `O=C1CCC(Nc2ccc(C3CCN(CC(=O)N4CCN(c5ccc(-c6cnc7[nH]cc(C(=O)c8c(F)ccc(NS(=O)(=O)N9CCCC9)c8F)c7c6)cc5)CC4)CC3)cc2)C(=O)N1` (stereo not shown) [Example A48, N-[3-[5-[4-[4-[2-[4-[4-[(2,6-Dioxopiperidin-3-yl)amino]phenyl]piperidin-1-yl]acetyl]piperazin-1-yl]phenyl]-1H-pyrrolo[2,3-b]pyridine-3-carbonyl]-2,4-difluorophenyl]pyrrolidine-1-sulfonamide], for which half-maximal degradation (DC50) was put at 5 nM and the maximal effect (Emax) is 12%.

`CCN(C)S(=O)(=O)Nc1ccc(F)c(C(=O)c2c[nH]c3ncc(-c4ccc(C5CCN(C(=O)CN6CCC(c7ccc(NC8CCC(=O)NC8=O)cc7)CC6)CC5)nc4)cc23)c1F` (stereo not shown) [Example A49, 5-[6-[1-[2-[4-[4-[(2,6-Dioxopiperidin-3-yl)amino]phenyl]piperidin-1-yl]acetyl]piperidin-4-yl]pyridin-3-yl]-3-[3-[[ethyl(methyl)sulfamoyl]amino]-2,6-difluorobenzoyl]-1H-pyrrolo[2,3-b]pyridine]: it took 17 nM to reach half-maximal degradation (DC50) and the Emax worked out at 11%.

As for `O=C1CCC(Oc2ccc(C3CCN(CC(=O)N4CCN(c5ccc(-c6cnc7[nH]cc(C(=O)c8c(F)ccc(NS(=O)(=O)N9CCCC9)c8F)c7c6)cc5)CC4)CC3)cc2)C(=O)N1` (stereo not shown) [Example A50, N-[3-[5-[4-[4-[2-[4-[4-(2,6-Dioxopiperidin-3-yl)oxyphenyl]piperidin-1-yl]acetyl]piperazin-1-yl]phenyl]-1H-pyrrolo[2,3-b]pyridine-3-carbonyl]-2,4-difluorophenyl]pyrrolidine-1-sulfonamide], the DC50 came out at 15 nM and the Emax worked out at 12%.

Regarding `O=C1CCC(Nc2ccc(N3CCN(CC(=O)N4CCN(c5ccc(-c6cnc7[nH]cc(C(=O)c8c(F)ccc(NS(=O)(=O)N9CCCC9)c8F)c7c6)cc5)CC4)CC3)cc2)C(=O)N1` (stereo not shown) [Example A51, N-[3-[5-[4-[4-[2-[4-[4-[(2,6-Dioxopiperidin-3-yl)amino]phenyl]piperazin-1-yl]acetyl]piperazin-1-yl]phenyl]-1H-pyrrolo[2,3-b]pyridine-3-carbonyl]-2,4-difluorophenyl]pyrrolidine-1-sulfonamide], the DC50 amounted to 4 nM and the maximum response (Emax) amounted to 14%.

Turning to `O=C1CCC(Nc2ccc(C3CCN(CC(=O)N4CCN(c5ccc(-c6cnc7[nH]cc(C(=O)c8c(F)ccc(NS(=O)(=O)C9CCCC9)c8F)c7c6)cc5)CC4)CC3)cc2)C(=O)N1` (stereo not shown) [Example A52, N-[3-[5-[4-[4-[2-[4-[4-[(2,6-Dioxopiperidin-3-yl)amino]phenyl]piperidin-1-yl]acetyl]piperazin-1-yl]phenyl]-1H-pyrrolo[2,3-b]pyridine-3-carbonyl]-2,4-difluorophenyl]cyclopentanesulfonamide], it took 10 nM to reach half-maximal degradation (DC50) and the Emax was 12%.

For the compound `O=C1CCC(Nc2ccc(C3CCN(C(=O)NC4CCN(Cc5ccc(-c6cnc7[nH]cc(C(=O)c8c(F)ccc(NS(=O)(=O)N9CCCC9)c8F)c7c6)cc5)CC4)CC3)cc2)C(=O)N1` (stereo not shown) [Example A53, N-[1-[[4-[3-[2,6-Difluoro-3-(pyrrolidin-1-ylsulfonylamino)benzoyl]-1H-pyrrolo[2,3-b]pyridin-5-yl]phenyl]methyl]piperidin-4-yl]-4-[4-[(2,6-dioxopiperidin-3-yl)amino]phenyl]piperidine-1-carboxamide;formic acid], the DC50 was 27 nM and the Emax worked out at 22%.

Regarding `CCN(C)S(=O)(=O)Nc1ccc(F)c(C(=O)c2c[nH]c3ncc(-c4cnc(N5CCN(C(=O)CN6CCC(c7ccc(NC8CCC(=O)NC8=O)cc7F)CC6)CC5)nc4)cc23)c1F` (stereo not shown) [Example A54, 5-[2-[4-[2-[4-[4-[(2,6-Dioxopiperidin-3-yl)amino]-2-fluorophenyl]piperidin-1-yl]acetyl]piperazin-1-yl]pyrimidin-5-yl]-3-[3-[[ethyl(methyl)sulfamoyl]amino]-2,6-difluorobenzoyl]-1H-pyrrolo[2,3-b]pyridine], half-maximal degradation (DC50) was put at 3.94 nM and the Emax was determined as 9.71%.

Turning to `CCN(C)S(=O)(=O)Nc1ccc(F)c(C(=O)c2c[nH]c3ncc(-c4cnc(N5CCN(C(=O)C(C)(C)N6CCC(c7ccc(NC8CCC(=O)NC8=O)cc7)CC6)CC5)nc4)cc23)c1F` (stereo not shown) [Example A55, 5-[2-[4-[2-[4-[4-[(2,6-Dioxopiperidin-3-yl)amino]phenyl]piperidin-1-yl]-2-methylpropanoyl]piperazin-1-yl]pyrimidin-5-yl]-3-[3-[[ethyl(methyl)sulfamoyl]amino]-2,6-difluorobenzoyl]-1H-pyrrolo[2,3-b]pyridine], the DC50 is 97 nM and the Emax stood at 26%.

On to `CCN(C)S(=O)(=O)Nc1ccc(F)c(C(=O)c2c[nH]c3ncc(-c4ccc(N5CCC(NC(=O)CN6CCC(c7ccc(NC8CCC(=O)NC8=O)cn7)CC6)CC5)cc4)cc23)c1F` (stereo not shown) [Example A56, 2-[4-[5-[(2,6-dioxopiperidin-3-yl)amino]pyridin-2-yl]piperidin-1-yl]-N-[1-[4-[3-[3-[[ethyl(methyl)sulfamoyl]amino]-2,6-difluorobenzoyl]-1H-pyrrolo[2,3-b]pyridin-5-yl]phenyl]piperidin-4-yl]acetamide; formic acid], for which the DC50 was 20 nM and the Emax amounted to 11%.

Turning to `CCN(C)S(=O)(=O)Nc1ccc(F)c(C(=O)c2c[nH]c3ncc(-c4ccc(N5CCC(NC(=O)CN6CCC(c7ccc(NC8CCC(=O)NC8=O)cn7)CC6)CC5)nc4)cc23)c1F` (stereo not shown) [Example A57, 2-[4-[5-[(2,6-dioxopiperidin-3-yl)amino]pyridin-2-yl]piperidin-1-yl]-N-[1-[5-[3-[3-[[ethyl(methyl)sulfamoyl]amino]-2,6-difluorobenzoyl]-1H-pyrrolo[2,3-b]pyridin-5-yl]pyridin-2-yl]piperidin-4-yl]acetamide;formic acid], half-maximal degradation (DC50) was put at 33 nM and the Emax was 13%.

`CCN(C)S(=O)(=O)Nc1ccc(F)c(C(=O)c2c[nH]c3ncc(-c4cnc(N5CCC(NC(=O)CN6CCC(c7ccc(NC8CCC(=O)NC8=O)cn7)CC6)CC5)nc4)cc23)c1F` (stereo not shown) [Example A58, 2-[4-[5-[(2,6-dioxopiperidin-3-yl)amino]pyridin-2-yl]piperidin-1-yl]-N-[1-[5-[3-[3-[[ethyl(methyl)sulfamoyl]amino]-2,6-difluorobenzoyl]-1H-pyrrolo[2,3-b]pyridin-5-yl]pyrimidin-2-yl]piperidin-4-yl]acetamide; formic acid]: the DC50 was 43 nM and the Emax was 13%.
